According to patent USRE48164E1, “Compounds and compositions for delivering active agents” (EMISPHERE TECHNOLOGIES INC., priority 2007, dated 2020):

Tests used:
[1] = test system: male, Sprague-Dawley rats; assay: Oral Delivery of Insulin in Rats: whole blood glucose after oral gavage of insulin with delivery agent compound; type: in vivo, rat; conditions: sodium salt of delivery agent
Procedure: Human recombinant insulin (ICN Biomedicals, Aurora, Ohio) was dissolved in deionized water (ph˜6.5) to obtain stock insulin solutions having a concentration of 15 mg/ml. Sodium salts of the delivery agent compounds shown below in table 1 dissolved in deionized water to obtain a 200 mg/ml delivery agent solution. The free acid form of delivery agent as converted to the sodium salt by adding one equivalent of sodium hydroxide. Solutions were vortexted, sonicated, and heated. If necessary, additional sodium hydroxide was added in μl quantities to achieve uniform solubility in the delivery agent solutions. Solutions were adjusted to a pit of 3.5-8.5 by the addition of either hydrochloric acid or sodium hydroxide, as appropriate. The insulin stock solution was then added to the delivery agent solutions to obtain an administration solution ultimately having an insulin concentration of 0.5 mg/ml. After solubilization and drug addition, administration solutions were brought to a final volume by the addition of deionized water.
Insulin was administered to male, Sprague-Dawley rats either alone or in combination with delivery agent by oral gavage (PO). Rats, weighing 0.22 to 0.27 kg, were fasted for 18-24 hours prior to dosing. A Rusch 8 French catheter was cut to 11 cm in length and adapted to fit a 1 ml syringe. The syringe was filled with dosing solution and the catheter was inserted into the at mouth and fed down the esophagus (10.0 cm). The dosing solution was delivered by pressing the syringe plunger while holding the rat in an upright position. The doses of delivery agent and insulin were 200 mg/kg and […], respectively unless noted otherwise in Table 1. The dose volume was […].
Immediate to each blood sampling point, rats were exposed briefly (˜10 seconds) to carbon dioxide until prostrate. A 77-nun capillary tube was inserted into the retroorbital sinus. Typically, blood samples were collected prior to dosing (time=0) and at 15, 30, 45, and 60 minutes after dosing.
To determine the pharmacodynamic response, a hand-held glucometer (OneTouch Ultra, LifeScan—Johnson & Johnson, New Brunswick, N.J.) was used to measure whole blood glucose after administration of insulin or insulin and delivery agent. After discarding the first drop of blood, a small sample (˜5-10 μls) was touched to the glucometer test strip (OneTouch Ultra, LifeScan) and a blood glucose reading was generated by the meter. Samples at the times indicated below in Table 1 after dosing.

[2] = insulin 0.5 mg/kg, delivery agent 100 mg/kg, time period 30 minutes
[3] = insulin 0.5 mg/kg, delivery agent 100 mg/kg, time period 45 minutes
[4] = insulin 0.5 mg/kg, delivery agent 200 mg/kg, time period 30 minutes

Cc1ccc(C)c(OCCCC(=O)O)c1 [Compound 1, 4-(2,5-Dimethylphenoxy)butyric acid]
Average Glucose Reduction (5 rats/experiment) ([1]; insulin 0.05 mg/kg, delivery agent 200 mg/kg, time period 15 minutes): −16.1% | Average Glucose Reduction (5 rats/experiment) ([1]; insulin 0.10 mg/kg, delivery agent 200 mg/kg, time period 30 minutes): −13.0% | Average Glucose Reduction (5 rats/experiment) ([1]; insulin 0.3 mg/kg, delivery agent 200 mg/kg, time period 45 minutes): −34.0% | Average Glucose Reduction (5 rats/experiment) [1, 2]: −31.4% | Average Glucose Reduction (5 rats/experiment) [1, 3]: −60.6%

CC(=O)c1cccc(OCCCCCC(=O)O)c1 [Compound 2, 6-(3-Acetylphenoxy)hexanoic acid]
Average Glucose Reduction (5 rats/experiment) ([1]; insulin 0.5 mg/kg, delivery agent 25 mg/kg, time period 45 minutes): −25.8% | Average Glucose Reduction (5 rats/experiment) ([1]; insulin 0.5 mg/kg, delivery agent 50 mg/kg, time period 45 minutes): −30.2% | Average Glucose Reduction (5 rats/experiment) [1, 3]: −50.8%

Cc1cccc(OCCCC(=O)O)c1 [Compound 6]
Average Glucose Reduction (5 rats/experiment) ([1]; insulin 0.25 mg/kg, delivery agent 100 mg/kg, time period 45 minutes): −30.9% | Average Glucose Reduction (5 rats/experiment) [1, 3]: −39.3% | Average Glucose Reduction (5 rats/experiment) ([1]; insulin 0.5 mg/kg, delivery agent 200 mg/kg, time period 60 minutes): −14.4% | melting point: 53 to 54 °C

O=C(O)CCCOc1cccc(F)c1 [Compound 7, 4-(3-Fluorophenoxy)butyric acid]
melting point: 53 to 54 °C

O=C(O)CCCOc1ccccc1Cl [Compound 8, 4-(2-Chlorophenoxy)butanoic acid]
melting point: 85 to 87 °C

CC(C)(Oc1ccc(Cl)cc1)C(=O)NCCCCCC(=O)O [Compound 10, 6-[2-(4-Chlorophenoxy)-2-methylpropionyl]-aminohexanoic acid]
Average Glucose Reduction (5 rats/experiment) [1, 4]: 2.5%

Cc1cc(F)ccc1OCCCC(=O)O [Compound 11, 4-(4-Fluoro-2-methyl-phenoxy)-butyric aid]
Average Glucose Reduction (5 rats/experiment) [1, 4]: −63.7% | Average Glucose Reduction (5 rats/experiment) ([1]; insulin 0.5 mg/kg, delivery agent 200 mg/kg, time period 45 minutes): −78.0%

Cc1ccc(F)c(OCCCC(=O)O)c1 [Compound 12, 4-(2-Fluoro-5-methyl-phenoxy)-butyric acid]
Average Glucose Reduction (5 rats/experiment) ([1]; insulin 0.25 mg/kg, delivery agent 100 mg/kg, time period 30 minutes): −41.0% | Average Glucose Reduction (5 rats/experiment) ([1]; insulin 0.5 mg/kg, delivery agent 25 mg/kg, time period 60 minutes): −13.1% | Average Glucose Reduction (5 rats/experiment) ([1]; insulin 0.5 mg/kg, delivery agent 50 mg/kg, time period 60 minutes): −25.7% | Average Glucose Reduction (5 rats/experiment) [1, 2]: −47.9%
